From PubChem BioAssay AID248 (DTP/NCI, 2004)
Where “and” joins values, the source holds several entries; their conditions need not be identical. Equal entries are not always repeated. Inconclusive results and toxic doses are left out. No stated cut-off is given here; in the data, active means T/C of 150% or more; inactive means T/C below 125%.

Tested on: L1210 leukemia ip in BDF1 mice, survival T/C
Assay: NCI In Vivo Anticancer Drug Screen. Data for tumor model L1210 Leukemia (intraperitoneal) in B6D2F1 (BDF1) mice
Details: endpoint: mean survival time, higher = longer survival
Summary of the method: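 Mice bearing the transplanted tumor received compound or vehicle. Survival of the treated group was divided by that of the vehicle-treated control group to give the ratio.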

[1] = dose: 50.0 mg/kg/injection, schedule: Q04DX003 (ip), vehicle: saline
[2] = dose: 100.0 mg/kg/injection, schedule: Q01DX001 (ip), vehicle: saline
[3] = dose: 25.0 mg/kg/injection, schedule: Q01DX009 (ip), vehicle: Klucel (hydroxypropylcellulose) (HPC)
[4] = dose: 50.0 mg/kg/injection, schedule: Q01DX009 (ip), vehicle: Klucel (hydroxypropylcellulose) (HPC)
[5] = dose: 100.0 mg/kg/injection, schedule: Q01DX009 (ip), vehicle: Klucel (hydroxypropylcellulose) (HPC)
[6] = dose: 100.0 mg/kg/injection, schedule: Q04DX003 (ip), vehicle: Klucel (hydroxypropylcellulose) (HPC)
[7] = dose: 200.0 mg/kg/injection, schedule: Q04DX003 (ip), vehicle: Klucel (hydroxypropylcellulose) (HPC)
[8] = dose: 400.0 mg/kg/injection, schedule: Q04DX003 (ip), vehicle: Klucel (hydroxypropylcellulose) (HPC)
[9] = dose: 200.0 mg/kg/injection, schedule: Q01DX009 (ip), vehicle: Klucel (hydroxypropylcellulose) (HPC)
[10] = dose: 400.0 mg/kg/injection, schedule: Q01DX009 (ip), vehicle: Klucel (hydroxypropylcellulose) (HPC)
[11] = dose: 100.0 mg/kg/injection, schedule: Q04DX002 (ip), vehicle: saline with Tween-80
[12] = dose: 200.0 mg/kg/injection, schedule: Q04DX002 (ip), vehicle: saline with Tween-80
[13] = dose: 400.0 mg/kg/injection, schedule: Q04DX002 (ip), vehicle: saline with Tween-80

Measured: T/C

CC1c2ccccc2N(CCCN(C)C)c2ccccc21
inactive: dose: 4.0 mg/kg/injection, schedule: Q01DX015 (ip), vehicle: saline 105 % of control | dose: 8.0 mg/kg/injection, schedule: Q01DX015 (ip), vehicle: saline 103 % of control | dose: 16.0 mg/kg/injection, schedule: Q01DX015 (ip), vehicle: saline 97 % of control | dose: 32.0 mg/kg/injection, schedule: Q01DX015 (ip), vehicle: saline 97 % of control and 100 % of control | [1] 108 % of control | dose: 64.0 mg/kg/injection, schedule: Q01DX015 (ip), vehicle: saline 97 % of control | dose: 128.0 mg/kg/injection, schedule: Q01DX015 (ip), vehicle: saline 92 % of control

Cc1ccc(N2CCN(Cc3ccc4ccccc4c3)CC2)cc1
inactive: dose: 100.0 mg/kg/injection, schedule: Q04DX003 (ip), vehicle: saline with Tween-80 102 % of control | dose: 200.0 mg/kg/injection, schedule: Q04DX003 (ip), vehicle: saline with Tween-80 94 % of control | dose: 400.0 mg/kg/injection, schedule: Q04DX003 (ip), vehicle: saline with Tween-80 100 % of control

CCCCCCCCCCCCNC(=O)c1ccc[n+](Cc2ccccc2)c1
inactive: dose: 5.0 mg/kg/injection, schedule: Q01DX009 (ip), vehicle: saline 102 % of control | dose: 5.0 mg/kg/injection, schedule: Q04DX003 (ip), vehicle: saline sonified 101 % of control | dose: 10.0 mg/kg/injection, schedule: Q01DX009 (ip), vehicle: saline 98 % of control | dose: 10.0 mg/kg/injection, schedule: Q04DX003 (ip), vehicle: saline sonified 106 % of control

O=C(Nc1ccc(C2=NCCCN2)cc1)Nc1ccc(C2=NCCCN2)cc1
inactive: dose: 0.31 mg/kg/injection, schedule: Q01DX Z (ip), vehicle: saline 94 % of control | dose: 0.63 mg/kg/injection, schedule: Q01DX Z (ip), vehicle: saline 110 % of control | dose: 1.25 mg/kg/injection, schedule: Q01DX Z (ip), vehicle: saline 114 % of control and 119 % of control | dose: 2.5 mg/kg/injection, schedule: Q01DX Z (ip), vehicle: saline 114 % of control | dose: 4.4 mg/kg/injection, schedule: Q01DX Z (ip), vehicle: saline 96 % of control

Cc1ccccc1S(=O)(=O)Cc1cc(Cl)cc(Cl)c1O
inactive: [2] 90 % of control | dose: 200.0 mg/kg/injection, schedule: Q01DX001 (ip), vehicle: saline 88 % of control | dose: 400.0 mg/kg/injection, schedule: Q01DX001 (ip), vehicle: saline 97 % of control

O=c1nccc(Nc2ccccc2)[nH]1
inactive: [3] 98 % of control | [4] 93 % of control | [5] 98 % of control

CC(=O)N(O)CCCCCNC(=O)CCC(=O)N(O)CCCCCNC(=O)CCC(=O)N(O)CCCCCN
inactive: dose: 83.0 mg/kg/injection, schedule: Q03HX024 (ip), vehicle: water 103 % of control | dose: 125.0 mg/kg/injection, schedule: Q03HX024 (ip), vehicle: water 102 % of control | dose: 420.0 mg/kg/injection, schedule: Q03HX024 (ip), vehicle: clinical formulation 102 % of control | dose: 420.0 mg/kg/injection, schedule: Q03HX024 (ip), vehicle: water 95 % of control and 103 % of control

CN(CCS(=O)(=O)O)/N=C/c1ccc2c(c1)OCO2
inactive: dose: 25.0 mg/kg/injection, schedule: Q01DX009 (ip), vehicle: alcohol 112 % of control | dose: 50.0 mg/kg/injection, schedule: Q01DX009 (ip), vehicle: alcohol 102 % of control | dose: 100.0 mg/kg/injection, schedule: Q01DX001 (ip), vehicle: saline with Tween-80 92 % of control | dose: 100.0 mg/kg/injection, schedule: Q01DX009 (ip), vehicle: alcohol 101 % of control | dose: 150.0 mg/kg/injection, schedule: Q01DX009 (ip), vehicle: Klucel (hydroxypropylcellulose) (HPC) 94 % of control | dose: 225.0 mg/kg/injection, schedule: Q01DX009 (ip), vehicle: Klucel (hydroxypropylcellulose) (HPC) 97 % of control

O=C(/C=C/c1ccccc1)N1CCCCC1
inactive: dose: 100.0 mg/kg/injection, schedule: Q01DX009 (ip), vehicle: saline with Tween-80 93 % of control | dose: 100.0 mg/kg/injection, schedule: Q04DX002 (ip), vehicle: Klucel (hydroxypropylcellulose) (HPC) 108 % of control | dose: 200.0 mg/kg/injection, schedule: Q01DX009 (ip), vehicle: saline with Tween-80 95 % of control | dose: 200.0 mg/kg/injection, schedule: Q04DX002 (ip), vehicle: Klucel (hydroxypropylcellulose) (HPC) 101 % of control | dose: 400.0 mg/kg/injection, schedule: Q01DX009 (ip), vehicle: saline with Tween-80 102 % of control

Cc1ccc(S(=O)(=O)Oc2ccccc2C)cc1
inactive: [6] 97 % of control | [7] 103 % of control | [8] 103 % of control

C(=N\C(/N=C/c1ccccc1)c1ccccc1)/c1ccccc1
inactive: [5] 96 % of control | [6] 92 % of control | [9] 94 % of control | [7] 94 % of control | [10] 92 % of control | [8] 92 % of control

COc1cc(OC)cc(C(O)C(C)NC(C)C)c1 (centres undefined)
inactive: dose: 6.25 mg/kg/injection, schedule: Q01DX009 (ip), vehicle: Klucel (hydroxypropylcellulose) (HPC) 95 % of control | dose: 12.5 mg/kg/injection, schedule: Q01DX009 (ip), vehicle: Klucel (hydroxypropylcellulose) (HPC) 92 % of control | dose: 12.5 mg/kg/injection, schedule: Q04DX003 (ip), vehicle: saline 108 % of control | [3] 92 % of control | dose: 25.0 mg/kg/injection, schedule: Q04DX003 (ip), vehicle: saline 97 % of control | [4] 95 % of control | [1] 105 % of control | [5] 101 % of control | dose: 100.0 mg/kg/injection, schedule: Q04DX003 (ip), vehicle: saline 103 % of control

COC(=O)c1cc(/C=C/c2ccccc2)ccc1[N+](=O)[O-]
inactive: dose: 50.0 mg/kg/injection, schedule: Q04DX003 (ip), vehicle: alcohol 90 % of control | dose: 100.0 mg/kg/injection, schedule: Q04DX003 (ip), vehicle: alcohol 101 % of control | dose: 200.0 mg/kg/injection, schedule: Q04DX003 (ip), vehicle: alcohol 104 % of control

CC12C(=O)C(C)(C(c3ccccc3)=C1c1ccccc1)C1C=CN(S(C)(=O)=O)C=CC12 (centres undefined)
inactive: [11] 86 % of control | [12] 88 % of control | [13] 86 % of control

CCN(CC)CC[N-]CCN(CC)CC.[Cl][Pt]
inactive: [2] 97 % of control

NNC(=O)C(CSC(c1ccccc1)c1ccccc1)NC(=O)C(CSC(c1ccccc1)(c1ccccc1)c1ccccc1)NC(=O)OCc1ccccc1 (centres undefined)
inactive: [5] 97 % of control | [9] 97 % of control | [10] 94 % of control

c1ccc(P(c2ccccc2)N2CCN(P(c3ccccc3)c3ccccc3)CC2)cc1
inactive: [11] 96 % of control | [12] 93 % of control | [13] 104 % of control

CCOC(=O)c1ccc(N=Cc2cnc(N)nc2N)cc1
inactive: dose: 100.0 mg/kg/injection, schedule: Q01DX001 (ip), vehicle: other 93 % of control | dose: 200.0 mg/kg/injection, schedule: Q01DX001 (ip), vehicle: other 87 % of control | dose: 400.0 mg/kg/injection, schedule: Q01DX001 (ip), vehicle: other 93 % of control
